Consider 3 compounds from PMC2151593 (The Journal of General Physiology, 2006).

In data set [1] the target is Shaker T449F (Drosophila melanogaster, UniProt P08510, C301S/C308S/DEL6-46/T449F). Format: cell-based.
The subject of data set [2] is Shaker T449X, X = Cha. In kind it is cell-based.
Data set [3] relates to KcsA. Nature of the data set: TEA block of KcsA. Format: biochemical, Streptomyces lividans. The conditions noted are these: higher than for Shaker T449F.
In data set [4] the target is T1, Shaker Thr449 (wild type) (Drosophila melanogaster, UniProt P08510, C301S/C308S/DEL6-46). The following applies: ref Heginbotham and MacKinnon, 1992; cited from earlier work.
In data set [5] the test system is Shaker T449X, X = 3,5F-Phe. Format: cell-based. The following applies: 3,5F-Phe at 449 relative to Phe; ΔΔG = RT ln(K i,X/K i,Phe).
The subject of data set [6] is Shaker, fluorinated derivatives of Phe449. Nature of the data set: Voltage dependence of TEA block, all fluorinated derivatives of Phe449. Format: cell-based.
Data set [7] relates to Shaker Tyr449. The following applies: ref Heginbotham and MacKinnon, 1992; cited from earlier work.
The target in data set [8] is KcsA. The following applies: read-out: K i for TEA block; KcsA (Tyr82); ref Heginbotham et al., 1999; cited from earlier work.
Data set [9] concerns the target T1, Shaker Thr449 (wild type). Nature of the data set: Extracellular TEA block of voltage-clamped potassium currents, Shaker with Thr. In kind it is cell-based. The following applies: Thr at 449 relative to Phe; ΔΔG = RT ln(K i,X/K i,Phe).
Data set [10] has as its system Shaker T449X, X = 4F-Phe. Format: cell-based. The conditions noted are these: 4F-Phe at 449 relative to Phe; ΔΔG = RT ln(K i,X/K i,Phe).
Data set [11] has as its system Shaker T449X, X = 3,4,5F-Phe. In kind it is cell-based. The following applies: 3,4,5F-Phe at 449 relative to Phe; ΔΔG = RT ln(K i,X/K i,Phe).
The conditions of data set [12]: benzene compared with hexafluorobenzene; ref Leo et al., 1971; cited from earlier work.

For the compound `CC[As+](CC)(CC)CC` [TEAs, tetraethylarsonium], the “factor by which TEAs is a weaker blocker (larger inhibitory constant) than TEA” value in [1] (Shaker T449F, unpublished data) is recorded as approximately 25 fold.
As to `CC[N+](CC)(CC)CC` [TEA, tetraethylammonium], the ΔΔG in data set [2] (Cha at 449 relative to Phe, ΔΔG = RT ln(K i,X/K i,Phe)) was determined as 3.75 kcal/mol; in [1] (Phe at 449 (reference), ΔΔG = RT ln(K i,X/K i,Phe), RT 0.58 kcal/mol), 0 kcal/mol; in data set [5] it was 2.78 kcal/mol; in [9], 2.58 kcal/mol; in data set [10], 1.23 kcal/mol; in data set [11], 3.54 kcal/mol. In addition, the “effect on TEA affinity (decrease relative to Phe)” value in [2] (nonaromatic residue Cha at 449) is 640 fold. Besides, the “K i for TEA block of KcsA relative to Shaker T449F” value in data set [3] is approximately 10 fold. The “fraction of the transmembrane electric field sensed by TEA” value is 19% in data set [4] and 4% in data set [7]. Besides, the “voltage dependence of block” value in data set [6] is on record as 2–8%. For the same compound, the Ki in [8] was 3.2 mM.
Take `Fc1c(F)c(F)c(F)c(F)c1F` [hexafluorobenzene]: the “logP (water/octanol partition)” value in data set [12] is “nearly identical”.
